Results on 51 molecules are retold here after the OPERA property sets (Mansouri et al. 2018).

Take `COCN(COC)c1nc(N(COC)COC)nc(N(COC)COC)n1`: the ready biodegradability result is given as “not readily biodegradable”.

As to `O=C(O)c1ccc(F)cc1F`, the melting point (commonly the temperature, or range, at which the solid turns liquid) worked out at 189 °C. For the molecule `BrC=CBr`, the boiling point – broadly, the temperature of boiling at a given pressure – was determined as 110 °C; the log10 Koc (L/kg) turned out to be 1.65; the log10 vapour pressure (mmHg) is 1.49; the melting point was -37.5 °C. Moreover, the ready biodegradability result was “not readily biodegradable”. The molecule `OC[C@H]1OC(O)[C@H](O)[C@@H](O)[C@@H]1O` (stereo not given in full) gave a melting point of 133 °C. Take `Cn1c(=O)c2c(ncn2CCO)n(C)c1=O`: the melting point came out at 158 °C.

Molecule `CCC(C)(C)N` returned a boiling point of 77 °C and a melting point of -105 °C. In turn, `COC1=C[C@@H](C)[C@@H]2C[C@H]3OC(=O)C[C@H]4C(C)=C(OC)C(=O)[C@H]([C@@]2(C)C1=O)[C@@]34C` yielded a melting point of 222 °C.

Molecule `Cc1cc(C)c(C)c(C)n1` gave a boiling point of 203 °C. Same read-out and setting: the value for `CC(=O)OCCCOC(C)=O` was 210 °C. The molecule `Nc1ccccc1C(F)(F)F` returned a boiling point of 187 °C and a melting point of 35.5 °C. Turning to `Cc1cc([N+](=O)[O-])ccc1N`, the melting point came out at 134 °C.

The molecule `CCCOC/C(=N\c1ccc(Cl)cc1C(F)(F)F)n1ccnc1` showed a log10 vapour pressure (mmHg) of -5.85 and a melting point of 63.5 °C. On to `CCCCOC(=O)C(=O)[C@H]1[C@H](C)C[C@H]2[C@@H]3C[C@H](F)C4=CC(=O)C=C[C@]4(C)[C@H]3[C@@H](O)C[C@@]21C`, for which the melting point was 195 °C. Turning to `Oc1c(Cl)cc(Cl)c(Cl)c1Cl`, the log10 Koc (L/kg) is 3.35, the log10 vapour pressure (mmHg) is -3.18, the melting point turned out to be 70 °C and the ready biodegradability entry was “not readily biodegradable”. The molecule `CCCCC1CO1` (stereo not given) came in with a melting point of 94 °C. Turning to `CCOC(=O)Nc1ccc(NCc2ccc(F)cc2)nc1N`, the melting point worked out at 116 °C.

For `NC(=O)c1ccccc1Cl`, the log10 Koc (L/kg) came to 1.51 and the melting point came to 143 °C.

For the molecule `Ic1ccccc1I`, the boiling point is 287 °C and the melting point was 27 °C. In turn, `C=C(CC)CC` gave a boiling point of 64.7 °C, a log10 vapour pressure (mmHg) of 2.24 and a melting point of -132 °C. Turning to `CCCCCN`, the boiling point was found to be 104 °C, the log10 Henry constant (atm·m³/mol) was -4.61, the log10 vapour pressure (mmHg) was 1.48 and the melting point is -55 °C. Further, the ready biodegradability result was “readily biodegradable”. With `Cc1ccccc1CCO`, the boiling point is 244 °C and the melting point is 2 °C.

Turning to `Nc1ccc(Cc2ccc(N)c(Cl)c2)cc1Cl`, the boiling point was 379 °C, the melting point stood at 110 °C and the ready biodegradability entry was “not readily biodegradable”. Consider `COC(=O)Nc1cccc(Cl)c1`, for which the log10 Koc (L/kg) is 2.15. The molecule `CNCCc1c[nH]c2ccccc12` came in with a melting point of 88 °C.

As to `O=C1Nc2ccc(Br)cc2C1=O`, the melting point worked out at 250 °C. `C/C(=C/CC[C@@]1(C)C2C[C@@H]3[C@H](C2)C31C)CO`: the boiling point was determined as 302 °C. In the case of `C=C1C(O)CC2(C(C)C)CC12` (stereo not given), the boiling point is 208 °C. Regarding `CCOc1ccc(NC(N)=O)cc1`, the melting point turned out to be 174 °C. Turning to `ClC=C(Cl)CCl`, the boiling point was 142 °C and the log10 vapour pressure (mmHg) was 0.643. Take `CC1OC1C` (stereo not given): the boiling point came to 58.2 °C and the melting point is -82.5 °C. For the molecule `C=CC[C@@H](C)CC`, the boiling point worked out at 86.7 °C, the log10 vapour pressure (mmHg) stood at 1.87 and the melting point was -142 °C. `COc1cc(C)ccc1O`: the boiling point was 221 °C, the log10 Henry constant (atm·m³/mol) was -5.88 and the melting point is 5.5 °C. `OC(c1ccccc1)(c1ccccc1)C1CCNCC1` registered a melting point of 160 °C.

Molecule `CCOP(=S)(OCC)Oc1ccc2c(C)c(Cl)c(=O)oc2c1` had a log10 vapour pressure (mmHg) of -7.01 and a melting point of 93 °C. As for `O=[N+]([O-])c1ccccc1SSc1ccccc1[N+](=O)[O-]`, the melting point was 196 °C. For the molecule `CC(C)Oc1ccccc1`, the boiling point came out at 177 °C and the melting point was -33 °C. In the case of `O=S1(=O)CCCC1`, the boiling point is 285 °C, the melting point was determined as 27.6 °C and the ready biodegradability result was “not readily biodegradable”. As for `CCCCCCCC(=O)OCC(COC(=O)CCCCCCC)OC(=O)CCCCCCC`, the melting point came out at 10 °C.

`Cc1ccccc1CBr`: the boiling point was determined as 217 °C and the melting point came to 21 °C. Consider `CCC(C)C`, for which the log10 vapour pressure (mmHg) came to 2.84 and the melting point was -160 °C.

Take `O=S1(=O)CCCCO1`: the melting point was 13.5 °C. In turn, `c1ccc(-c2nc3ccccc3s2)cc1` came in with a boiling point of 371 °C and a melting point of 115 °C.

With `CCC1(CC)C(=O)CCNC1=O`, the melting point turned out to be 104 °C. `CC(C)=CCN=C(N)N` had a melting point of 62.5 °C.

As for `BrCC(CBr)(CBr)CBr`, the boiling point worked out at 306 °C, the melting point is 163 °C and the ready biodegradability entry is “not readily biodegradable”. Molecule `O=C(OC[C@H]1O[C@@H](O)[C@H](O)[C@@H](O)[C@@H]1O)c1ccccc1` showed a melting point of 121 °C. Consider `CCOC(=O)CC(=O)C(C)C`, for which the boiling point is 173 °C and the melting point was -9 °C. With `O=C(C(=O)c1ccco1)c1ccco1`, the melting point amounted to 164 °C. Molecule `Cc1ccsc1/C=C/C1=NCCCN1C` gave a melting point of 240 °C. Same read-out and setting: under `C[C@H](CCC(=O)O)[C@H]1CC[C@H]2[C@@H]3CC[C@@H]4C[C@H](O)CC[C@]4(C)[C@H]3C[C@H](O)[C@]12C` stands 177 °C. Turning to `Oc1cc(Cl)cc(Cl)c1Cl`, the log10 Koc (L/kg) stood at 3.61, the log10 vapour pressure (mmHg) was -1.66 and the melting point is 62 °C.
